According to the supplement of paper PMC9938120:

What was measured:
Test in all cases: drug sensitivity score (DSS3, normalised partial AUC of % inhibition dose-response) (DSS (score)); higher = more sensitive (stronger inhibition of viability); extreme values may be limits of the assay
FMOC22 = patient-derived mucinous ovarian cancer cells; conditions: 72 h; library: FO5A; assay format: 2D, 384-well, CellTiter-Glo
Method in brief: (§1)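 On 384-well flat clear-bottom plates carrying compounds at five concentrations across a 10,000-fold range, patient-derived ovarian cancer cells below passage 10 were incubated for 72 h at 37 °C with 5% CO2. CellTiter-Glo readout of viability was processed in Breeze. A higher drug sensitivity score, defined as the partial area under the percent-inhibition dose-response curve divided by the log of the upper asymptote, means greater sensitivity.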

FMOC11 = patient-derived high-grade serous ovarian cancer cells; conditions: 72 h; library: FO5A; assay format: 2D, 384-well, CellTiter-Glo
Method in brief: as §1

FMOC06 = patient-derived mucinous ovarian cancer cells; conditions: 72 h; library: FO5A; assay format: 2D, 384-well, CellTiter-Glo
Method in brief: as §1

FMOC14 = patient-derived high-grade serous ovarian cancer cells; conditions: 72 h; library: FO5A; assay format: 2D, 384-well, CellTiter-Glo
Method in brief: as §1

FMOC24 = patient-derived high-grade serous ovarian cancer cells; conditions: 72 h; library: FO5A; assay format: 2D, 384-well, CellTiter-Glo
Method in brief: as §1

FMOC28 = patient-derived low-grade serous ovarian cancer cells; conditions: 72 h; library: FO5A; assay format: 2D, 384-well, CellTiter-Glo
Method in brief: as §1

FMOC27 = patient-derived low-grade serous ovarian cancer cells; conditions: 72 h; library: FO5A; assay format: 2D, 384-well, CellTiter-Glo
Method in brief: as §1

FMOC03 = patient-derived mucinous ovarian cancer cells; conditions: 72 h; library: FO5A; assay format: 2D, 384-well, CellTiter-Glo
Method in brief: as §1

FMOC25_2 = patient-derived low-grade serous ovarian cancer cells; conditions: 72 h; library: FO5A; assay format: 2D, 384-well, CellTiter-Glo
Method in brief: as §1

FMOC17 = patient-derived low-grade serous ovarian cancer cells; conditions: 72 h; library: FO5A; assay format: 2D, 384-well, CellTiter-Glo
Method in brief: as §1

FMOC02_3 = patient-derived low-grade serous ovarian cancer cells; conditions: 72 h; library: FO5A; assay format: 2D, 384-well, CellTiter-Glo
Method in brief: as §1

FMOC02_1 = patient-derived low-grade serous ovarian cancer cells; conditions: 72 h; library: FO5A; assay format: 2D, 384-well, CellTiter-Glo
Method in brief: as §1

FMOC02_2 = patient-derived low-grade serous ovarian cancer cells; conditions: 72 h; library: FO5A; assay format: 2D, 384-well, CellTiter-Glo
Method in brief: as §1

FMOC25_1 = patient-derived low-grade serous ovarian cancer cells; conditions: 72 h; library: FO4B; assay format: 2D, 384-well, CellTiter-Glo
Method in brief: as §1

FMOC04 = patient-derived high-grade serous ovarian cancer cells; conditions: 72 h; library: FO5A; assay format: 2D, 384-well, CellTiter-Glo
Method in brief: as §1

FMOC09 = patient-derived high-grade serous ovarian cancer cells; conditions: 72 h; library: FO5A; assay format: 2D, 384-well, CellTiter-Glo
Method in brief: as §1

SMILES	drug sensitivity score (FMOC22)	drug sensitivity score (FMOC11)	drug sensitivity score (FMOC06)	drug sensitivity score (FMOC14)	drug sensitivity score (FMOC24)	drug sensitivity score (FMOC28)	drug sensitivity score (FMOC27)	drug sensitivity score (FMOC03)	drug sensitivity score (FMOC25_2)	drug sensitivity score (FMOC17)	drug sensitivity score (FMOC02_3)	drug sensitivity score (FMOC02_1)	drug sensitivity score (FMOC02_2)	drug sensitivity score (FMOC25_1)	drug sensitivity score (FMOC04)	drug sensitivity score (FMOC09)
CNC(=O)c1cc(COc2nnc(Nc3ccc(Cl)cc3)c3ccoc23)ccn1 [Telatinib]	0	0	0	0	0.4	0	0	0	0	2.5	0	1.2	1.7	0	0.05	0
NC(=O)c1cccc(-c2cccc(OC(=O)NC3CCCCC3)c2)c1 [URB597]	0	0	0	0	0	0	0	0	0	0	0.2	0	0	0	0	0
O=C(CCCCCCC(=O)Nc1ccc([C@H]2O[C@@H](CSc3nc(-c4ccccc4)c(-c4ccccc4)o3)C[C@@H](c3ccc(CO)cc3)O2)cc1)NO [Tubacin]	5.4	4.2	4.1	2.9	0.25	0.4	0.4	4.6	0	0	0.4	0	0.3	0	0	0
O=C(O)c1ccc(-c2c[nH]c3ncc(-c4ccccc4)cc23)cc1C1CCCC1	0.8	0	0	0	0.65	2.9	0	0.5	0.4	0	0	0	0	0	0	0
S=C(NCc1ccc2c(c1)OCO2)N1CCN(c2ncnc3c2oc2ccccc23)CC1 [Amuvatinib]	2.2	0.7	0.8	2	0	0	0	2.6	0	0.3	0	0.4	0	0	0.3	0
NCCNc1ccc(NCCN)c2c1C(=O)c1ccncc1C2=O [Pixantrone]	0	1.7	0	0	0	1.6	0	0	1.8	0.9	1.5	0	0	0.7	0.2	0
O=C(Nc1nc2cccc(-c3ccc(CN4CCS(=O)(=O)CC4)cc3)n2n1)C1CC1 [Filgotinib]	0	0	1.3	0	3.1	5.2	5	0	3.9	3.3	6.1	2.6	2.9	1.9	0	0.4
CNC(=O)c1cc(Oc2ccc(NC(=O)Nc3ccc(Cl)c(C(F)(F)F)c3)cc2)ccn1 [Sorafenib]	0	0	0	0	0	0	0	0	0	0.5	0	0	0	0	0	0
COc1cc([C@@H]2c3cc4c(cc3[C@@H](O[C@@H]3O[C@@H]5CO[C@@H](c6cccs6)O[C@H]5[C@H](O)[C@H]3O)[C@H]3COC(=O)[C@H]23)OCO4)cc(OC)c1O [Teniposide]	2.5	0	0	0	2.75	0	0	0.5	0	0	0	0	0	6.4	0	0
COc1cc2ncnc(Oc3cccc(NC(=O)Nc4cc(C(C)(C)C(F)(F)F)on4)c3)c2cc1OC	0	3.3	0.3	0.3	0	0	0	0	1.1	0	4.4	4	6.6	0	0	1.3
CNC(=O)c1cccc2cc(Oc3ccnc4cc(OCC5(N)CC5)c(OC)cc34)ccc12 [Lucitanib]	0.2	1.1	0.3	0	1.45	4.1	1.4	0.1	1.4	0.2	1.7	2.6	0.4	0.3	0.4	1.2
O=C(Nc1cc(Cl)cc2c1[nH]c1cnccc12)c1cccnc1 [PS-1145]	0	0.8	0.8	0	2.75	3	0.7	0.1	2.7	2.3	7.2	2.2	4.6	3.2	0	1.1
CC1CCC(n2c3cnccc3c3cnc(Nc4ccc5c(n4)CCN(C(=O)CO)C5)nc32)CC1 (centres undefined) [AMG-925]	0.2	0	0	0	0	0	0.9	0	0.5	0	1.3	0	0	0.7	0	0
Cn1cnc2c(F)c(Nc3ccc(Br)cc3F)c(C(=O)NOCCO)cc21 [Binimetinib]	3.6	0	7.6	0	0	1.6	2.2	4.8	3.2	6	7.1	5.5	7.1	6.6	0	4.2
CC(C)(C)Cn1c(N)nc2ccc(-c3[nH]c(C(C)(C)C)nc3-c3ccc(F)cc3)nc21 [Ralimetinib]	0.4	6.5	3.1	2.2	1.95	1.1	3.2	2.7	3.4	4.4	3.4	6.6	4.3	1.1	1.05	1.9
Cc1c(Cn2c(C)nc3c(C(=O)O)cc(N4CCOCC4)cc32)cccc1C(F)(F)F	0	0	0.6	2.5	3	7.2	0.1	0.5	11.4	0	2.2	0	6.3	3.5	0.65	0
CNc1nc(Nc2cn(C(C)(C)C#N)nc2C)ncc1C(F)(F)F [GNE-0877]	0	0	0	0	0	0	0	0	0	0	0	0	0	0	0	0
O=C(O)CC1CC(c2ccccc2)=NO1 (centres undefined) [VGX-1027]	0	0	0	0	0	0	0	0	0	0	0	0	0	0	0	0
Cc1ccc(F)c(NC(=O)Nc2ccc(-c3cccc4[nH]nc(N)c34)cc2)c1 [Linifanib]	0	0	0	0	0	0	0	0	0	0	0	0	0	0	0	0
NC[C@@](O)(c1ccc(Cl)cc1)c1ccc(-c2cn[nH]c2)cc1	1.1	2.8	1.5	0	4.55	2.8	0	0.3	0.4	0	0	4.1	0.4	2.8	0	2.6
CNC(=O)c1ccccc1Sc1ccc2c(/C=C/c3ccccn3)n[nH]c2c1 [Axitinib]	1.2	0.1	0	0	2.15	0	0	2.1	0	0.3	0.1	1.9	0.5	0	0.45	0
CCC/C=C/C=C/C(=O)O[C@H]1/C(=C/C(=O)OC)C[C@H]2C[C@H]([C@@H](C)O)OC(=O)C[C@H](O)C[C@@H]3C[C@H](OC(C)=O)C(C)(C)[C@](O)(C[C@@H]4C/C(=C/C(=O)OC)C[C@H](/C=C/C(C)(C)[C@]1(O)O2)O4)O3 [Bryostatin 1]	2.6	2.4	6.8	0	3.45	0.7	0.2	0	7.1	0	4.1	6.7	1.5	6.6	0.7	0.6
COc1cc2c(Oc3ccc4[nH]c(C)cc4c3F)ncnc2cc1OCCCN1CCCC1 [Cediranib]	0	0.2	0.5	0	1.85	1	0	0	0	0.2	0	1.1	0.9	1.7	0	0
CCCC(CCC)C(=O)O [Valproic acid]	0	0	0	0	0	0.1	0	0	0	0	0	0	0	0	0	0
